Reference: paper PMC10400562, “Label-free measurement of antimicrobial peptide interactions with lipid vesicles and nanodiscs using microscale thermophoresis” (Scientific Reports, 2023)
Non-standard residues stand in square brackets, D forms with d. Residues, ends and D or L forms follow the SMILES beside them.

Columns and labels:
E. coli ATCC 25922 = assay type: cell-based; conditions: for E. coli MIC (ATCC 25922): ATCC 25922, 24 h
Procedure: The bacterial strains used were E. coli ATCC 25922 and S. aureus ATCC 9144. Overnight cultures and MIC assays were performed in cationic-adjusted BD BBL Mueller Hinton II Broth (MHB II, 212322, Becton, Dickson and Company, Sparks, MD, USA).
The MICs for 1–5 were determined using the CLSI M07-A9 guidelines. Working solutions were prepared in double distilled water containing max. 1% DMSO. A concentration range between 256–0.25 µg/mL was tested for each peptide. The bacterial inoculum was 1 × 10^6 cells/mL and incubated 1:1 with each test compound in a polypropylene 96-well round-bottom plate (655209, Greiner Bio-One, Kresmmuenster, Austria). Each MIC test was performed in three biological replicates, consisting of four technical replicates. Positive controls (without antibiotics) and negative controls (without bacteria) were included for each technical replicate. The reference antibiotic erythromycin was included to assure quality control. The plates were incubated for 24 h at 37 °C. The MIC value was defined as the lowest concentration of compound resulting in no visible bacterial growth.

[1] = Label-free MST, peptide binding to 100 nm vesicles; conditions: 2500 nM AMP; for Kd: label-free MST (Trp fluorescence), lipid 0–1.5 mM, 10 mM TRIS pH 7.4 100 mM NaCl, mean ± SD of triplicates, '>' = minimum value; for Vesicle KP, DMPC (MST) / Vesicle KP, DMPC/PG (MST): partition coefficient from initial fluorescence on MST instrument, TRIS pH 7.4, ± SD of triplicate fits, judged unreliable by authors; for Vesicle KP, DMPC (MST): hyperbolic fit after removal of deviant points; for Vesicle KP, DMPC/PG (MST): hyperbolic fit
Excerpt: For KD evaluation by MST, FHot was registered during the temperature related intensity change (TRIC) phase of the MST trace (see “Methods”). The advantage of evaluating KD during the TRIC phase is that any potential effects of prolonged heating on the thermostability of the sample that may influence the binding can be avoided. The dose–response profile of MST response against lipid concentration for 1–5 largely follows a sigmoidal curve shape (Fig. 3A,B).
DMPC and DMPC:5% DMPG vesicles were prepared by solubilising a known weight of lipid in chloroform with a small amount of methanol to assist in the dissolution of the PG lipid head groups. The chloroform stock was dried in vacuo to produce a lipid film, which was further dried for additional 3 h. The lipid film was solubilised in 10 mM TRIS buffer (pH 7.4) containing 100 mM NaCl to yield a 20 mM milky lipid stock.
To produce the working vesicle stock, 1 mL of vesicle stock was extruded 20 times through a 0.1 µm filter using an Avanti Lipids mini-extruder. Vesicle size was confirmed using a Malvern Zetasizer Nano ZS (Malvern Panalytical Ltd, Malvern, United Kingdom).
(§1) All MST measurements were conducted on a NanoTemper Monolith NT. Labelfree instrument, using Monolith NT. Labelfree standard treated zero background capillaries.
(§2) A dilution series of vesicles/nanodiscs was prepared from 3 mM to 100 nM lipid concentrations, comprising 15 discrete samples, and an additional zero lipid sample, for a total of 16 lipid concentrations. Final MST samples were prepared as a combination of 25 µL lipid solution and 25 µL 5 µM peptide solution (Table S1 in the Supporting Information).
(§3) MST measurements were conducted with excitation power set to 15%, with the MST power set to high. Laser time settings were: 3 s pre-laser, 30 s on time, and 3 s after heating. FHot was taken from the T-jump period after 1.5 s and FCold taken in the second prior to IR laser activation. For the evaluation of KP, the initial fluorescence was taken as the value reported during the period before the application of the laser. The MST response and initial fluorescence were extracted directly as a text file for further processing in MATLAB.
(§4) In a typical binding experiment that yields a sigmoidal curve, the Hill equation can be fitted to yield KD:[66]6 y=y0+EMaxLipid^n/KDn+Lipid^n where y is the MST response, y0 is the MST response of the AMP in an aqueous solution (i.e., in the absence of lipids), n is the Hill coefficient, and EMax is the maximal effect of the tested substrate. The removal of outlying MST response points was necessary. Erroneous points were identified by poor MST trace shapes or higher than expected initial fluorescence that was absent in the other replicates or subsequent points, but otherwise no further treatment of data was necessary. In all instances the MST response was plotted against log lipid concentration in nM and fit to Eq. (6).
(§5) The Kp of a molecule can be determined experimentally by observing changes in fluorescent intensity in the presence of an increasing concentration of lipid, and fitting to Eq. (8)[43].8 I/Iaq=1+KpVmLipidIL/Iaq/1+KPVmLipid
(§6) In Eq. (8) the fluorescence intensity of the AMP (I) is normalised to the fluorescence intensity of the AMP in an aqueous environment (Iaq), Vm is the molar volume of the lipids and IL is the fluorescence intensity of the AMP in the lipidic environment. For Vm, the average molar volume of the lipid composition is used. In the case of the DMPC only environments it is taken as the Vm of DMPC (1.023 nm^3), and in the DMPC-DMPG mixture it is the weighted average relative to the composition used (Vm DMPG = 0.997 nm^3)[54].

[2] = Label-free MST, peptide binding to SMA-QA nanodiscs; conditions: for Kd: label-free MST, SMA-QA nanodiscs (cationic belt), 2500 nM AMP, Hill fit, mean ± SD of triplicates, '>' = minimum value; for SMA-QA KP, DMPC (MST) / SMA-QA KP, DMPC/PG (MST): partition coefficient from initial fluorescence on MST instrument, SMA-QA nanodiscs, hyperbolic fit, ± SD of triplicate fits
Procedure: (§7) The MST data for two nanodisc types, SMA and SMA-QA, were evaluated using the same methodology as the vesicle data, with FHot taken during the TRIC, and Fnorm plotted against log[lipid] and fit to Eq. (6).
(§8) The DMPC, and DMPC with 5% DMPG 21 mM vesicle stocks were used for the nanodisc preparation. The stocks were combined with an 8% SMA stock solution to yield a final SMA concentration of 1% for SMA nanodiscs. The stocks were combined with a 100 mg/mL SMA-QA stock to yield a final lipid:SMA-QA w/w ratio of 1:1.5. The combined SMA/SMA-QA and lipid mixture were incubated at room temperature overnight and purified by SEC. Fractions containing SMA/SMA-QA discs were concentrated using centrifugation filters. Total lipid concentration was determined by ^31P NMR (Figs. S4–S7). Nanodisc size was confirmed using a Malvern Zetasizer Nano ZS (Malvern Panalytical Ltd, Malvern, United Kingdom).
as §1, §2, §3, §4, §5, §6

[3] = Label-free MST, peptide binding to SMA nanodiscs; conditions: for Kd: label-free MST, SMA nanodiscs (anionic belt), 2500 nM AMP, apparent KD dominated by interaction with SMA polymer, mean ± SD of triplicates; for SMA KP, DMPC (MST) / SMA KP, DMPC/PG (MST): partition coefficient from initial fluorescence on MST instrument, SMA nanodiscs, hyperbolic fit, ± SD of triplicate fits
Procedure: as §7, §8, §1, §2, §3, §4, §5, §6

SPR; KP from the fits = conditions: buffer
[4] = Vesicle; KP from the fits; conditions: buffer
[5] = Hill fit of Fnorm in TRIC phase, insufficient curve sampling, read-out: Vesicle KD, DMPC (MST)
[6] = Hill fit, read-out: Vesicle KD, DMPC/PG (MST)
[7] = read-out: SMA-QA KD, DMPC (MST)
[8] = read-out: SMA-QA KD, DMPC/PG (MST)
[9] = read-out: SMA KD, DMPC/PG (MST)

Row | SMILES | E. coli MIC (ATCC 25922) (E. coli ATCC 25922) [µg/mL] | Kd [1, 5] [µM] | Kd [1, 6] [µM] | Vesicle KP, DMPC (MST) [1] | Vesicle KP, DMPC/PG (MST) [1] | Kd [2, 7] [µM] | Kd [2, 8] [µM] | SMA-QA KP, DMPC (MST) [2] | SMA-QA KP, DMPC/PG (MST) [2] | Kd ([3]; read-out: SMA KD, DMPC (MST)) [µM] | Kd [3, 9] [µM] | SMA KP, DMPC (MST) [3] | SMA KP, DMPC/PG (MST) [3] | membrane partition coefficient KP (KP x 10^3) (SPR; KP from the fits; DMPC bilayer on SPR chip) | membrane partition coefficient KP (KP x 10^3) (SPR; KP from the fits; DMPC/PG bilayer on SPR chip) | membrane partition coefficient KP (KP x 10^3) ([4]; DMPC vesicles (MST)) | membrane partition coefficient KP (KP x 10^3) ([4]; DMPC/PG vesicles (MST)) | antimicrobial activity against tested strain (E. coli ATCC 25922; E. coli ATCC 25922, statement in text)
1 | N=C(N)NCCC[C@@H]1NC(=O)[C@H](CCCNC(=N)N)NC(=O)[C@H](Cc2c[nH]c3ccccc23)NC(=O)[C@H](Cc2c[nH]c3ccccc23)NC(=O)[C@H](Cc2c[nH]c3ccccc23)NC(=O)[C@H](CCCNC(=N)N)NC1=O [compound 1] (cyclo(WWWRRR)) | 8 | 21 ± 3 | 10 ± 5 | 7.24 ± 1.73 × 10^3 | 7.73 ± 1.58 × 10^3 | 142 ± 17 | 40 ± 5 | 7.07 ± 1.78 × 10^3 | 7.63 ± 1.89 × 10^3 | 1.2 ± 0.5 | 2.2 ± 0.4 | 10.40 ± 1.52 × 10^3 | 10.27 ± 2.13 × 10^3 | 6.65 ± 0.80 x10^3 | 12.71 ± 0.16 x10^3 | 7.24 ± 1.73 x10^3 | 7.73 ± 1.58 x10^3 | 
2 | N=C(N)NCCC[C@@H]1NC(=O)[C@H](Cc2c[nH]c3ccccc23)NC(=O)[C@H](CCCNC(=N)N)NC(=O)[C@H](Cc2c[nH]c3ccccc23)NC(=O)[C@H](CCCNC(=N)N)NC(=O)[C@H](Cc2c[nH]c3ccccc23)NC1=O [compound 2] (cyclo(WRWRWR)) | 32 | 73 ± 53 | 24 ± 7 | 7.08 ± 2.32 × 10^3 | 16.97 ± 3.83 × 10^3 | > 541 | > 615 | 36.55 ± 11.82 × 10^3 | 12.62 ± 4.16 × 10^3 | 2.7 ± 0.5 | 5.6 ± 1.1 | 9.72 ± 2.69 × 10^3 | 3.57 ± 0.36 × 10^3 | 1.30 ± 0.09 x10^3 | 3.16 ± 0.15 x10^3 | 7.08 ± 2.32 x10^3 | 16.97 ± 3.83 x10^3 | 
3 | CC(C)C[C@@H]1NC(=O)[C@@H](CCCNC(=N)N)NC(=O)[C@H](CCCCN)NC(=O)[C@H](CC(N)=O)NC(=O)[C@@H](Cc2c[nH]c3ccccc23)NC(=O)[C@H](Cc2c[nH]c3ccccc23)NC1=O [compound 5] (cyclo(LW[dW]NK[dR])) | > 256 | > 670 | > 650 | 3.10 ± 2.17 × 10^3 | 1.47 ± 0.07 × 10^3 |  | > 1000 | 17.12 ± 12.90 × 10^3 | 3.35 ± 0.57 × 10^3 |  |  | 6.98 ± 1.24 × 10^3 | 4.75 ± 0.32 × 10^3 | 0.28 ± 0.01 x10^3 |  | 3.10 ± 2.17 x10^3 | 1.47 ± 0.07 x10^3 | inactive

Second part, led by results:

Row | E. coli MIC (ATCC 25922) (E. coli ATCC 25922) [µg/mL] | Kd [1, 5] [µM] | Kd [1, 6] [µM] | Vesicle KP, DMPC (MST) [1] | Vesicle KP, DMPC/PG (MST) [1] | Kd [2, 7] [µM] | Kd [2, 8] [µM] | SMA-QA KP, DMPC (MST) [2] | SMA-QA KP, DMPC/PG (MST) [2] | Kd ([3]; read-out: SMA KD, DMPC (MST)) [µM] | Kd [3, 9] [µM] | SMA KP, DMPC (MST) [3] | SMA KP, DMPC/PG (MST) [3] | membrane partition coefficient KP (KP x 10^3) (SPR; KP from the fits; DMPC bilayer on SPR chip) | membrane partition coefficient KP (KP x 10^3) (SPR; KP from the fits; DMPC/PG bilayer on SPR chip) | membrane partition coefficient KP (KP x 10^3) ([4]; DMPC vesicles (MST)) | membrane partition coefficient KP (KP x 10^3) ([4]; DMPC/PG vesicles (MST)) | SMILES | antimicrobial activity against tested strain (E. coli ATCC 25922; E. coli ATCC 25922, statement in text)
4 | 8 | 28 ± 3 | 17 ± 13 | 2.55 ± 0.89 × 10^3 | 11.05 ± 4.49 × 10^3 | 267 ± 47 | 145 ± 55 | 9.16 ± 2.86 × 10^3 | 4.93 ± 0.81 × 10^3 | 1.1 ± 0.3 | 1.1 ± 0.5 | 2.34 ± 1.40 × 10^3 | 4.21 ± 0.43 × 10^3 | 2.53 ± 0.08 x10^3 | 5.16 ± 0.34 x10^3 | 2.55 ± 0.89 x10^3 | 11.05 ± 4.49 x10^3 | NCCCC[C@@H]1NC(=O)[C@H](CCCCN)NC(=O)[C@H](Cc2c[nH]c3ccccc23)NC(=O)[C@H](Cc2c[nH]c3ccccc23)NC(=O)[C@H](Cc2c[nH]c3ccccc23)NC(=O)[C@H](CCCCN)NC1=O [compound 3] (cyclo(WWWKKK)) | 
5 | 64 | 282 ± 58 | 112 ± 29 | 8.56 ± 7.41 × 10^3 | 14.90 ± 4.84 × 10^3 | > 713 |  | 6.15 ± 6.54 × 10^3 | 3.23 ± 1.87 × 10^3 | 8.6 ± 0.5 | 9.8 ± 0.3 | 0.70 ± 0.11 × 10^3 | 1.14 ± 0.12 × 10^3 | 0.53 ± 0.01 x10^3 | 0.63 ± 0.03 x10^3 | 8.56 ± 7.41 x10^3 | 14.90 ± 4.84 x10^3 | NCCCC[C@@H]1NC(=O)[C@H](Cc2c[nH]c3ccccc23)NC(=O)[C@H](CCCCN)NC(=O)[C@H](Cc2c[nH]c3ccccc23)NC(=O)[C@H](CCCCN)NC(=O)[C@H](Cc2c[nH]c3ccccc23)NC1=O [compound 4] (cyclo(WKWKWK)) | 
